Patent US20150284331A1 (priority 2012, published 2015)

Assays:
butyrylcholinesterase = molecular target: T1, butyrylcholinesterase (Rattus norvegicus, UniProt Q9JKC1); assay: inhibition of butyrylcholinesterase (rat serum); format: biochemical; conditions: rat serum enzyme; final concentration 4×10−5 mol/L
T1 construct: Butyrylcholinesterase: rat serum; from tissue; host or cells: rat serum
Method: (§1) Sample processing: All samples were formulated as 10-2 mol/L solution by using 100% DMSO. 10-2 mol/L solution was used in microdetermination. 1 μL was taken to use in single tube experiment.
(§2) Solvent control: 0.4% DMSO was used in microdetermination. The inhibition ratio of the sample was obtained wherein the effect of solvent was deducted.
Butyrylcholinesterase: rat serum

acetylcholinesterase = molecular target: T2, acetylcholinesterase (Rattus norvegicus, UniProt P37136); assay: biochemical; format: biochemical; conditions: rat cortex enzyme; for acetylcholinesterase inhibitory activity inhibition ratio (%): final concentration 4×10−5 mol/L; for IC50: read-out: acetylcholinesterase inhibitory activity IC50 (nmol)
T2 construct: Acetylcholinesterase: rat cortex; from tissue; host or cells: rat cortex
T2 sequence (P37136 32-614): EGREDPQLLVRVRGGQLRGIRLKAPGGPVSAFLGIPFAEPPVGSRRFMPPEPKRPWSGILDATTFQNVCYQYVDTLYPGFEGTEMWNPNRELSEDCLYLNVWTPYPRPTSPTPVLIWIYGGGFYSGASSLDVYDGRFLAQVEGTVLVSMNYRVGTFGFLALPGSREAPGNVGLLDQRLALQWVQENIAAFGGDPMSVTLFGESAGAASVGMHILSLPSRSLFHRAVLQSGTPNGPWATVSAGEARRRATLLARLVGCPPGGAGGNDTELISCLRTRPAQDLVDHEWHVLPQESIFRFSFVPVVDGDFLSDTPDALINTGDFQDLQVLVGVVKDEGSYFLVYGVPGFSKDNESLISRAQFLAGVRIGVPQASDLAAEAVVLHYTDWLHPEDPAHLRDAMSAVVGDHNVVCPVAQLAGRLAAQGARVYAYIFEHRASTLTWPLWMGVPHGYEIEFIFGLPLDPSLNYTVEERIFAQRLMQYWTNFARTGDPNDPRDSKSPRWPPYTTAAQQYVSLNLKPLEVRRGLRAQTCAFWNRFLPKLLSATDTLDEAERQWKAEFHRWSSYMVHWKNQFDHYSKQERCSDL
Method: as §1, §2
Acetylcholinesterase: rat cortex

T1 sequence (Q9JKC1 24-597): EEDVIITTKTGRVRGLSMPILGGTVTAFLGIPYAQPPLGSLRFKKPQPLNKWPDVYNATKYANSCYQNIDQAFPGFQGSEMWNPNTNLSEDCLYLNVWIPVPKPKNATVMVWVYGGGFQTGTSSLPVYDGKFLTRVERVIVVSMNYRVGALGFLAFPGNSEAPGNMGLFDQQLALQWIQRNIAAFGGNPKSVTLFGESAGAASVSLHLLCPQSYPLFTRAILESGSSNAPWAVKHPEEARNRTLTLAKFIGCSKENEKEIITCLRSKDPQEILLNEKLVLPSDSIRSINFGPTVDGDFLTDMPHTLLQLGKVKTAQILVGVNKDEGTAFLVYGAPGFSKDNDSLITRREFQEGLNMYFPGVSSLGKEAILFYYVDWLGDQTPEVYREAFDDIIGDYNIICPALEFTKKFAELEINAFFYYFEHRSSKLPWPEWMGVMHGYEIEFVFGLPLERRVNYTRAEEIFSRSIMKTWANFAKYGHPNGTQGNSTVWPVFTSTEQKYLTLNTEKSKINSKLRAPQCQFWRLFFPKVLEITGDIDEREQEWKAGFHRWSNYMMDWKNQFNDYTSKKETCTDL

Row | SMILES | butyrylcholinesterase inhibitory activity inhibition ratio (%) (butyrylcholinesterase) | acetylcholinesterase inhibitory activity inhibition ratio (%) (acetylcholinesterase) | IC50 (acetylcholinesterase)
1 | COc1cc2c(cc1OC)C(=O)C(CC1(F)CCN(Cc3ccc([N+](=O)[O-])cc3)CC1)C2 (stereo not drawn) [DC1, 2-((4-fluoro-1-(4-nitrobenzyl)piperidin-4-yl)methyl)-5,6-dimethoxy-2,3-dihydro-1H-inden-1-one] | 46.68% | 72.85% | 8780 nM
2 | COc1cc2c(cc1OC)C(=O)C(CC1(F)CCN(Cc3ccccc3C#N)CC1)C2 (stereo not drawn) [DC3, 2-((4-((5,6-dimethoxy-1-oxo-2,3-dihydro-1H-inden-2-yl)methyl)-4-fluoropiperidin-1-yl)methyl)benzonitrile] | 36.42% | 80.04% | 
3 | COc1cc2c(cc1OC)C(=O)C(CC1(F)CCN(Cc3cc(C)cc(C)c3)CC1)C2 (stereo not drawn) [DC4, 2-((1-(3,5-dimethylbenzyl)-4-fluoropiperidin-4-yl)methyl)-5,6-dimethoxy-2,3-dihydro-1H-inden-1-one] | 72.82% | 75.65% | 
4 | COc1cc2c(cc1OC)C(=O)C(CC1(F)CCN(Cc3ccc(F)cc3)CC1)C2 (stereo not drawn) [DC5, 2-((4-fluoro-1-(4-fluorobenzyl)piperidin-4-yl)methyl)-5,6-dimethoxy-2,3-dihydro-1H-inden-1-one] | 0.00% | 82.04% | 2.67 nM
5 | COc1cc2c(cc1OC)C(=O)C(CC1(F)CCN(Cc3ccc(OC(F)(F)F)cc3)CC1)C2 (stereo not drawn) [DC6, 2-((4-fluoro-1-(4-(trifluoromethoxy)benzyl)piperidin-4-yl)methyl)-5,6-dimethoxy-2,3-dihydro-1H-inden-1-one] | 1.24% | 51.7% | 
6 | COc1cc2c(cc1OC)C(=O)C(CC1(F)CCN(Cc3ccc(C(C)(C)C)cc3)CC1)C2 (stereo not drawn) [DC7, 2-((1-(4-(tert-butyl)benzyl)-4-fluoropiperidin-4-yl)methyl)-5,6-dimethoxy-2,3-dihydro-1H-inden-1-one] | 8.40% | 69.06% | 
7 | COc1cc2c(cc1OC)C(=O)C(CC1(F)CCN(Cc3c(F)cccc3[N+](=O)[O-])CC1)C2 (stereo not drawn) [DC8, 2-((4-fluoro-1-(2-fluoro-6-nitrobenzyl)piperidin-4-yl)methyl)-5,6-dimethoxy-2,3-dihydro-1H-inden-1-one] | 49.48% | 76.05% | 27100 nM
8 | COc1cc2c(cc1OC)C(=O)C(CC1(F)CCN(Cc3cc4c(cc3Br)OCO4)CC1)C2 (stereo not drawn) [DC9, 2-((1-((6-bromobenzo[d][1,3]dioxol-5-yl)methyl)-4-fluoropiperidin-4-yl)methyl)-5,6-dimethoxy-2,3-dihydro-1H-inden-1-one] | 33.79% | 97.34% | 
9 | COc1cc2c(cc1OC)C(=O)C(CC1(F)CCN(Cc3ccc(F)cc3F)CC1)C2 (stereo not drawn) [DC10, 2-((1-(2,4-difluorobenzyl)-4-fluoropiperidin-4-yl)methyl)-5,6-dimethoxy-2,3-dihydro-1H-inden-1-one] | 83.11% | 97.34% | 
10 | COc1cc2c(cc1OC)C(=O)C(CC1(F)CCN(Cc3cccc(Br)c3)CC1)C2 (stereo not drawn) [DC11, 2-((1-(3-bromobenzyl)-4-fluoropiperidin-4-yl)methyl)-5,6-dimethoxy-2,3-dihydro-1H-inden-1-one] | 12.76% | 84.63% | 4.33 nM
11 | COc1cc2c(cc1OC)C(=O)C(CC1(F)CCN(Cc3ccc(F)c(F)c3F)CC1)C2 (stereo not drawn) [DC12, 2-((4-fluoro-1-(2,3,4-trifluorobenzyl)piperidin-4-yl)methyl)-5,6-dimethoxy-2,3-dihydro-1H-inden-1-one] | 38.15% | 98.08% | 
12 | COc1cc2c(cc1OC)C(=O)C(CC1(F)CCN(Cc3cccc(C#N)c3)CC1)C2 (stereo not drawn) [DC13, 3-((4-((5,6-dimethoxy-1-oxo-2,3-dihydro-1H-inden-2-yl)methyl)-4-fluoropiperidin-1-yl)methyl)benzonitrile] | 29.25% | 97.19% | 
13 | COc1cc2c(cc1OC)C(=O)C(CC1(F)CCN(Cc3ccccc3Br)CC1)C2 (stereo not drawn) [DC14, 2-((1-(2-bromobenzyl)-4-fluoropiperidin-4-yl)methyl)-5,6-dimethoxy-2,3-dihydro-1H-inden-1-one] | 54.77% | 85.03% | 4 nM
14 | COc1cc2c(cc1OC)C(=O)C(CC1(F)CCN(Cc3ccc(Br)cc3F)CC1)C2 (stereo not drawn) [DC15, 2-((1-(4-bromo-2-fluorobenzyl)-4-fluoropiperidin-4-yl)methyl)-5,6-dimethoxy-2,3-dihydro-1H-inden-1-one] | 0.31% | 72.65% | 7040 nM
15 | COc1cc2c(cc1OC)C(=O)C(CC1(F)CCN(Cc3ccc(C(F)(F)F)cc3)CC1)C2 (stereo not drawn) [DC16, 2-((4-fluoro-1-(4-(trifluoromethyl)benzyl)piperidin-4-yl)methyl)-5,6-dimethoxy-2,3-dihydro-1H-inden-1-one] | 0.00% | 75.25% | 
16 | COc1cc2c(cc1OC)C(=O)C(CC1(F)CCN(Cc3cc(F)c(F)cc3F)CC1)C2 (stereo not drawn) [DC17, 2-((4-fluoro-1-(2,4,5-trifluorobenzyl)piperidin-4-yl)methyl)-5,6-dimethoxy-2,3-dihydro-1H-inden-1-one] | 49.79% | 81.84% | 2 nM
17 | COc1cc2c(cc1OC)C(=O)C(CC1(F)CCN(Cc3ccccc3C(F)(F)F)CC1)C2 (stereo not drawn) [DC18, 2-((4-fluoro-1-(2-(trifluoromethyl)benzyl)piperidin-4-yl)methyl)-5,6-dimethoxy-2,3-dihydro-1H-inden-1-one] | 14.99% | 93.80% | 
18 | COc1cc2c(cc1OC)C(=O)C(CC1(F)CCN(Cc3cccc(F)c3)CC1)C2 (stereo not drawn) [DC21, 2-((4-fluoro-1-(3-fluorobenzyl)piperidin-4-yl)methyl)-5,6-dimethoxy-2,3-dihydro-1H-inden-1-one] | 75.02% | 82.24% | 
19 | COc1cc2c(cc1OC)C(=O)C(CC1(F)CCN(Cc3cc(C(F)(F)F)cc(C(F)(F)F)c3)CC1)C2 (stereo not drawn) [DC22, 2-((1-(3,5-bis(trifluoromethyl)benzyl)-4-fluoropiperidin-4-yl)methyl)-5,6-dimethoxy-2,3-dihydro-1H-inden-1-one] | 4.36% | 58.49% | 
20 | COc1cc2c(cc1OC)C(=O)C(CC1(F)CCN(Cc3c(F)c(F)c(F)c(F)c3F)CC1)C2 (stereo not drawn) [DC28, 2-((4-fluoro-1-((perfluorophenyl)methyl)piperidin-4-yl)methyl)-5,6-dimethoxy-2,3-dihydro-1H-inden-1-one] |  | 96.5% | 
21 | COc1cc2c(cc1OC)C(=O)C(CC1(F)CC3CCC(C1)N3Cc1ccc([N+](=O)[O-])cc1)C2 (stereo not drawn) [DC41, 2-((3-fluoro-8-(4-nitrobenzyl)-8-azabicyclo[3.2.1]octan-3-yl)methyl)-5,6-dimethoxy-2,3-dihydro-1H-inden-1-one] |  | 56.8% | 
22 | COc1cc2c(cc1OC)C(=O)C(CC1(F)CC3CCC(C1)N3Cc1ccccc1C#N)C2 (stereo not drawn) [DC43, 2-((3-((5,6-dimethoxy-1-oxo-2,3-dihydro-1H-inden-2-yl)methyl)-3-fluoro-8-azabicyclo[3.2.1]octan-8-yl)methyl)benzonitrile] |  | 88.9% | 
23 | COc1cc2c(cc1OC)C(=O)C(CC1(F)CC3CCC(C1)N3Cc1c(F)cccc1[N+](=O)[O-])C2 (stereo not drawn) [DC48, 2-((3-fluoro-8-(2-fluoro-6-nitrobenzyl)-8-azabicyclo[3.2.1]octan-3-yl)methyl)-5,6-dimethoxy-2,3-dihydro-1H-inden-1-one] |  | 77.3% | 
24 | COc1cc2c(cc1OC)C(=O)C(CC1(F)CC3CCC(C1)N3Cc1ccccc1Br)C2 (stereo not drawn) [DC54, 2-((8-(2-bromobenzyl)-3-fluoro-8-azabicyclo[3.2.1]octan-3-yl)methyl)-5,6-dimethoxy-2,3-dihydro-1H-inden-1-one] |  | 90.3% | 
25 | COc1cc2c(cc1OC)C(=O)C(CC1(F)CC3CCC(C1)N3Cc1ccc(-c3ccccc3)cc1)C2 (stereo not drawn) [DC76, 2-((8-([1,1′-biphenyl]-4-ylmethyl)-3-fluoro-8-azabicyclo[3.2.1]octan-3-yl)methyl)-5,6-dimethoxy-2,3-dihydro-1H-inden-1-one] |  | 85.3% | 
